Measurements from ChEMBL document CHEMBL3351298, “Design, synthesis and evaluation of novel tacrine-(β-carboline) hybrids as multifunctional agents for the treatment of Alzheimer's disease” (Bioorg Med Chem, 2014).
Active and inactive are the calls of the source. No cut-off for these calls is given here.

Biological target: Amyloid-beta precursor protein (Homo sapiens) (UniProt P05067)
Test: Inhibition of amyloid beta (1 to 42) (unknown origin) self-induced aggregation at 20 uM after 46 to 48 hrs by thioflavin-T based fluorometric assay
Conditions: not given

Sequence of Amyloid-beta precursor protein (Homo sapiens) (P05067 whole entry): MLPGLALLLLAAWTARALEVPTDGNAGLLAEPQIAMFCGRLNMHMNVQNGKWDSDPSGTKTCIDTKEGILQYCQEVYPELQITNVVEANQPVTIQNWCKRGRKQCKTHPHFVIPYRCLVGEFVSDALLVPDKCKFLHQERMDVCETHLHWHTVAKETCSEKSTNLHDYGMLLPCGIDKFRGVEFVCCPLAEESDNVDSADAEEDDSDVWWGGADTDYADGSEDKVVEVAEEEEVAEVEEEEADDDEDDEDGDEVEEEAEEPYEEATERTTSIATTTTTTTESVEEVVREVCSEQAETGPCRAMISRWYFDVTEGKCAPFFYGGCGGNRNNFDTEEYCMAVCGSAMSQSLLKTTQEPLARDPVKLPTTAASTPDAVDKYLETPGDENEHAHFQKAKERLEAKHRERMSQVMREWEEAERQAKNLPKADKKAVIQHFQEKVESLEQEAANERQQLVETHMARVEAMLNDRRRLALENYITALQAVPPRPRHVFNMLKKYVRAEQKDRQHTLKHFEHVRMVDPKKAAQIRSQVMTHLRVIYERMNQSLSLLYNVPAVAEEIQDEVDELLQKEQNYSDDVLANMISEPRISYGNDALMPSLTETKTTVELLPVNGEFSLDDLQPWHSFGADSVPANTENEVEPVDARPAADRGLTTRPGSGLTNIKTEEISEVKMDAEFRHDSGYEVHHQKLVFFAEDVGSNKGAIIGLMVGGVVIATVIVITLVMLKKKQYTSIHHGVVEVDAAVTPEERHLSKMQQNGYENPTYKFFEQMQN

Question: For `Cc1nc(C(=O)NCCCCCCNc2c3c(nc4ccccc24)CCCC3)cc2c1[nH]c1ccccc12`, which inhibition is on record?
Answer: 41.5%

Question: For `CC(=O)N[C@@H](Cc1c[nH]c2ccccc12)C(=O)NCCCCCCNc1c2c(nc3ccccc13)CCCC2`, which inhibition is on record?
Answer: 61.4%

Question: Which inhibition does the source give for `O=C(NCCCCCCNc1c2c(nc3ccccc13)CCCC2)c1cc2c([nH]c3ccccc32)c(-c2ccccc2)n1` here?
Answer: 26.1%

Question: Which inhibition does the source give for `Cc1nc(C(=O)NCCCCNc2c3c(nc4ccccc24)CCCC3)cc2c1[nH]c1ccccc12` here?
Answer: 39.3%

Question: Which inhibition does the source give for `CC1N[C@H](C(=O)NCCCCCCNc2c3c(nc4ccccc24)CCCC3)Cc2c1[nH]c1ccccc21` (stereo partly specified) here?
Answer: 48.6%

Question: Which inhibition does the source give for `N[C@@H](Cc1c[nH]c2ccccc12)C(=O)NCCCCCCNc1c2c(nc3ccccc13)CCCC2` here?
Answer: 66.3%

Question: For `O=C(NCCCCCCNc1c2c(nc3ccccc13)CCCC2)c1cc2c(cn1)[nH]c1ccccc12`, which inhibition is on record?
Answer: 41.2%

Test system: PC-12
Test: Neuroprotective activity against H2O2-induced oxidative damage in rat PC12 cells assessed as increase in cell viability at 0.4 to 10 uM after 24 hrs by MTT assay
Assay type: functional, cell-based
Conditions: not given

Question: With `N[C@@H](Cc1c[nH]c2ccccc12)C(=O)NCCCCCCNc1c2c(nc3ccccc13)CCCC2` as the compound, how does the Activity read?
Answer: Active

Test system: not listed separately
Test: Retention time of the compound using CH3OH/H2O(0.1% Formic acid), 45% (v/v) of CH3OH gradient by HPLC analysis
Assay type: physicochemical
Conditions: not given

Question: With `N[C@@H](Cc1c[nH]c2ccccc12)C(=O)NCCCCCCNc1c2c(nc3ccccc13)CCCC2` as the compound, how does the Retention_time read?
Answer: 5.426 min

Test system: not listed separately
Test: Retention time of the compound using CH3OH/H2O(0.1% Formic acid), 55% (v/v) of CH3OH gradient by HPLC analysis
Assay type: physicochemical
Conditions: not given

Question: With `Cc1nc(C(=O)NCCCCNc2c3c(nc4ccccc24)CCCC3)cc2c1[nH]c1ccccc12` as the compound, how does the Retention_time read?
Answer: 10.988 min

Test system: not listed separately
Test: Retention time of the compound using CH3OH/H2O (0.1% Formic acid), 60% (v/v) of CH3OH gradient by HPLC analysis
Assay type: physicochemical
Conditions: not given

Question: For `Cc1nc(C(=O)NCCCCCCNc2c3c(nc4ccccc24)CCCC3)cc2c1[nH]c1ccccc12`, which Retention_time is on record?
Answer: 13.685 min

Question: Which Retention_time does the source give for `CC(=O)N[C@@H](Cc1c[nH]c2ccccc12)C(=O)NCCCCCCNc1c2c(nc3ccccc13)CCCC2` here?
Answer: 4.642 min

Question: With `O=C(NCCCCCCNc1c2c(nc3ccccc13)CCCC2)c1cc2c(cn1)[nH]c1ccccc12` as the compound, how does the Retention_time read?
Answer: 15.899 min

Test system: not listed separately
Test: Retention time of the compound using CH3OH/H2O (0.1% Formic acid), 65% (v/v) of CH3OH gradient by HPLC analysis
Assay type: physicochemical
Conditions: not given

Question: Which Retention_time does the source give for `O=C(NCCCCCCNc1c2c(nc3ccccc13)CCCC2)c1cc2c([nH]c3ccccc32)c(-c2ccccc2)n1` here?
Answer: 23.485 min

Biological target: Acetylcholinesterase (Electrophorus electricus, UniProt O42275)
Test: not given
Conditions: not given

Sequence of Acetylcholinesterase (Electrophorus electricus, UniProt O42275) (O42275 whole entry): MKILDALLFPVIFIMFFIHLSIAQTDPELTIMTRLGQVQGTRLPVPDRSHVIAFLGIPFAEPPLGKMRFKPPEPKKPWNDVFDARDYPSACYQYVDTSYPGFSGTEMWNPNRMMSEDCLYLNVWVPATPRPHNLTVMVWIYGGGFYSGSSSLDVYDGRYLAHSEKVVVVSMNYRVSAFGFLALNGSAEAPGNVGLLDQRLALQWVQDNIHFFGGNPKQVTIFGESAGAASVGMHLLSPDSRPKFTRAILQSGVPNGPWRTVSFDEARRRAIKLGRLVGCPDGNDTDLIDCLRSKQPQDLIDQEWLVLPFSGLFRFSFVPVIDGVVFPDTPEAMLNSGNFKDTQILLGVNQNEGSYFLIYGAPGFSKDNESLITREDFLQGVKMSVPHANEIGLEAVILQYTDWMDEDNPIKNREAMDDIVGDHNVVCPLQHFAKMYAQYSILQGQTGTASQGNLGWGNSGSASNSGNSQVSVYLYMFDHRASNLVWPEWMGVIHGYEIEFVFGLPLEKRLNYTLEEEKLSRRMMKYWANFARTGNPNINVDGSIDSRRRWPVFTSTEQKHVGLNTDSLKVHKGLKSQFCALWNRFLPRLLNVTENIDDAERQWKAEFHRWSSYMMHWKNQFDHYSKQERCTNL

Question: Which IC50 does the source give for `Cc1nc(C(=O)NCCCCCCNc2c3c(nc4ccccc24)CCCC3)cc2c1[nH]c1ccccc12` here?
Answer: 40.6 nM

Question: With `CC(=O)N[C@@H](Cc1c[nH]c2ccccc12)C(=O)NCCCCCCNc1c2c(nc3ccccc13)CCCC2` as the compound, how does the IC50 read?
Answer: 115 nM

Question: For `O=C(NCCCCCCNc1c2c(nc3ccccc13)CCCC2)c1cc2c([nH]c3ccccc32)c(-c2ccccc2)n1`, which IC50 is on record?
Answer: 127 nM

Question: Which IC50 does the source give for `Cc1nc(C(=O)NCCCCNc2c3c(nc4ccccc24)CCCC3)cc2c1[nH]c1ccccc12` here?
Answer: 268 nM

Question: For `CC1N[C@H](C(=O)NCCCCCCNc2c3c(nc4ccccc24)CCCC3)Cc2c1[nH]c1ccccc21` (stereo partly specified), which IC50 is on record?
Answer: 156 nM

Question: With `N[C@@H](Cc1c[nH]c2ccccc12)C(=O)NCCCCCCNc1c2c(nc3ccccc13)CCCC2` as the compound, how does the IC50 read?
Answer: 51.6 nM

Question: Which IC50 does the source give for `O=C(NCCCCCCNc1c2c(nc3ccccc13)CCCC2)c1cc2c(cn1)[nH]c1ccccc12` here?
Answer: 32.4 nM

Biological target: Cholinesterase (Equus caballus, UniProt P81908)
Test: not given
Conditions: not given

Sequence of Cholinesterase (P81908 whole entry): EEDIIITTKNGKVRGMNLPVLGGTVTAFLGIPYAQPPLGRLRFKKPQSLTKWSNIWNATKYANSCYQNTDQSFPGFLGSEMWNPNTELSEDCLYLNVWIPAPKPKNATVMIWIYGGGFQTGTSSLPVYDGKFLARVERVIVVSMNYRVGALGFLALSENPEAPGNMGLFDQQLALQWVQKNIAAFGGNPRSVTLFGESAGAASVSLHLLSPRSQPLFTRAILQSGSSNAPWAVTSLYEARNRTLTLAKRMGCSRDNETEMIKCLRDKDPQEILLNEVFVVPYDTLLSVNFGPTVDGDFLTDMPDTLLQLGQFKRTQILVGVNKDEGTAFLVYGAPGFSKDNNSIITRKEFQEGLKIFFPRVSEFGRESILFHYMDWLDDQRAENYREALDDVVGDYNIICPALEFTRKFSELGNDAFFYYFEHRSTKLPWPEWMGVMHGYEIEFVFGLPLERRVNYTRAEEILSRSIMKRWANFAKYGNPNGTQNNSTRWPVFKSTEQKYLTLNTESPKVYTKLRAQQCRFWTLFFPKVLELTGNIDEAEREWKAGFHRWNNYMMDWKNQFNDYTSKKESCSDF

Question: With `Cc1nc(C(=O)NCCCCCCNc2c3c(nc4ccccc24)CCCC3)cc2c1[nH]c1ccccc12` as the compound, how does the IC50 read?
Answer: 93.6 nM

Question: With `CC(=O)N[C@@H](Cc1c[nH]c2ccccc12)C(=O)NCCCCCCNc1c2c(nc3ccccc13)CCCC2` as the compound, how does the IC50 read?
Answer: 6.2 nM

Question: Which IC50 does the source give for `O=C(NCCCCCCNc1c2c(nc3ccccc13)CCCC2)c1cc2c([nH]c3ccccc32)c(-c2ccccc2)n1` here?
Answer: 129 nM

Question: Which IC50 does the source give for `Cc1nc(C(=O)NCCCCNc2c3c(nc4ccccc24)CCCC3)cc2c1[nH]c1ccccc12` here?
Answer: 158 nM

Question: For `CC1N[C@H](C(=O)NCCCCCCNc2c3c(nc4ccccc24)CCCC3)Cc2c1[nH]c1ccccc21` (stereo partly specified), which IC50 is on record?
Answer: 240 nM

Question: With `N[C@@H](Cc1c[nH]c2ccccc12)C(=O)NCCCCCCNc1c2c(nc3ccccc13)CCCC2` as the compound, how does the IC50 read?
Answer: 10.6 nM

Question: Which IC50 does the source give for `O=C(NCCCCCCNc1c2c(nc3ccccc13)CCCC2)c1cc2c(cn1)[nH]c1ccccc12` here?
Answer: 41.3 nM

Biological target: Acetylcholinesterase (Homo sapiens, UniProt P22303)
Test: not given
Conditions: not given

Sequence of Acetylcholinesterase (Homo sapiens, UniProt P22303) (P22303 whole entry): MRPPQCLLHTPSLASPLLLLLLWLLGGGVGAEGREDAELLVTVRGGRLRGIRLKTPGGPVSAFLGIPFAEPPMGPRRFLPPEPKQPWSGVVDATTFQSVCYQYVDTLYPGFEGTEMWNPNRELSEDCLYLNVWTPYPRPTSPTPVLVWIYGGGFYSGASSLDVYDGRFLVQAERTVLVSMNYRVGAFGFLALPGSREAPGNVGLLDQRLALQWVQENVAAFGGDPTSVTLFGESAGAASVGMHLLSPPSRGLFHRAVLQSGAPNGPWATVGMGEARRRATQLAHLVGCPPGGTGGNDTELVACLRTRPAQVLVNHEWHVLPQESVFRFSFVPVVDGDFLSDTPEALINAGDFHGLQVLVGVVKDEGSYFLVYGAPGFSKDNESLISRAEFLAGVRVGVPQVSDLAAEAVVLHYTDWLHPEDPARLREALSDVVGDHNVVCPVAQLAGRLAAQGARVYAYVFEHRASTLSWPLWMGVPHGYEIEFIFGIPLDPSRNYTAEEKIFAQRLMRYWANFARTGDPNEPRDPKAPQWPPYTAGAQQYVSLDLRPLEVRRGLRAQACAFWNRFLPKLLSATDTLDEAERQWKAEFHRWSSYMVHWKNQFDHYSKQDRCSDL

Question: With `Cc1nc(C(=O)NCCCCCCNc2c3c(nc4ccccc24)CCCC3)cc2c1[nH]c1ccccc12` as the compound, how does the IC50 read?
Answer: 92.6 nM

Question: Which IC50 does the source give for `CC(=O)N[C@@H](Cc1c[nH]c2ccccc12)C(=O)NCCCCCCNc1c2c(nc3ccccc13)CCCC2` here?
Answer: 153 nM

Question: With `O=C(NCCCCCCNc1c2c(nc3ccccc13)CCCC2)c1cc2c([nH]c3ccccc32)c(-c2ccccc2)n1` as the compound, how does the IC50 read?
Answer: 159 nM

Question: With `Cc1nc(C(=O)NCCCCNc2c3c(nc4ccccc24)CCCC3)cc2c1[nH]c1ccccc12` as the compound, how does the IC50 read?
Answer: 325 nM

Question: Which IC50 does the source give for `CC1N[C@H](C(=O)NCCCCCCNc2c3c(nc4ccccc24)CCCC3)Cc2c1[nH]c1ccccc21` (stereo partly specified) here?
Answer: 203 nM

Question: For `N[C@@H](Cc1c[nH]c2ccccc12)C(=O)NCCCCCCNc1c2c(nc3ccccc13)CCCC2`, which IC50 is on record?
Answer: 96.3 nM

Question: With `O=C(NCCCCCCNc1c2c(nc3ccccc13)CCCC2)c1cc2c(cn1)[nH]c1ccccc12` as the compound, how does the IC50 read?
Answer: 91.8 nM

Test system: not listed separately
Test: in vitro
Conditions: PAMPA

Question: With `CC(=O)[C@H]1CC[C@H]2[C@@H]3CCC4=CC(=O)CC[C@]4(C)[C@H]3CC[C@]12C` [PROGESTERONE] as the compound, how does the Papp read?
Answer: 4.14 ×10⁻⁶ cm/s

Question: With `Clc1cccc(Cl)c1N=C1NCCN1` [CLONIDINE] as the compound, how does the Papp read?
Answer: 3.8 ×10⁻⁶ cm/s

Question: Which Papp does the source give for `NCCc1ccc(O)c(O)c1` [DOPAMINE] here?
Answer: 0.15 ×10⁻⁶ cm/s

Question: Which Papp does the source give for `N[C@@H](Cc1c[nH]c2ccccc12)C(=O)NCCCCCCNc1c2c(nc3ccccc13)CCCC2` here?
Answer: 4.45 ×10⁻⁶ cm/s

Question: Which Papp does the source give for `O=C(NCCCCCCNc1c2c(nc3ccccc13)CCCC2)c1cc2c(cn1)[nH]c1ccccc12` here?
Answer: 5.36 ×10⁻⁶ cm/s

Question: Which Papp does the source give for `CN1C(C(=O)Nc2ccccn2)=C(O)c2ccccc2S1(=O)=O` [PIROXICAM] here?
Answer: 1.2 ×10⁻⁶ cm/s
